Measurements reported in US4774259A, “Phenylalanine derivatives and uses thereof” (Ajinomoto Co., Inc., priority 1985, dated 1988).

Legend:
[1] = Absorption promoting test of insulin, oral, mice (Example 7): blood glucose and immunoreactive insulin; type: in vivo, female ICR-CDl mice; conditions: for Decrease in Blood Glucose / Degree of increase of Blood Insulin: insulin 0.5 unit/10 g, promoter 3 mg/10 g, oral, compared with phosphate buffer control; for effect on decreasing the blood glucose value and increasing the blood insulin level (in words): oral with insulin
Protocol: A test for the absorption of insulin was carried out with absorption promoters of the present invention. Thus, insulin (0.5 unit/10 g weight) and the absorption promoter (3 mg/10 g weight) were suspended in a 0.05M phosphate buffer. Then the group of five female ICR-CDl mice, 5 to 7 weeks old, which were fasted for 18 hours, were orally administered with the prepared suspension.
The blood glucose value and the immunoreactive insulin level of each group of mice were determined at the fixed time.
The percent decrease in blood glucose and the degree of increase of blood insulin as compared with a phosphate buffer control group were shown in Table 2.

[2] = Absorption promoting test of insulin, oral, mice (Example 3): blood glucose value; type: in vivo, female ICR-CDI mice; conditions: for decrease in the blood glucose value (in words): oral with insulin, compared with a control group
Protocol: A test for the promotion of the absorption of insulin was carried out upon the above-described absorption promoters and upon two known absorption promoting agents. Thus, insulin in a prescribed dose (23.3 unit/mg) and the absorption promoter, as given in the Table below, were dissolved or suspended in a 0.05M phosphate buffer. Then groups of five female ICR-CDI mice, 6 to 7 weeks old, which had not been fed for 18 hours, were orally administered with the predetermined buffer solution (0.5 ml). A predetermined time later, the blood glucose value of each group of mice was determined.

[3] = system: male ICR mice; assay: Toxicity test, oral LD50, mice (Example 4); type: in vivo; conditions: compared with known absorption promoting agents
Protocol: Predetermined amounts of the absorption promoters listed in the Table were each suspended in 0.5% CMC sodium salt solution. Groups of ten male ICR mice, 4 weeks old, were orally administered with the suspension. Two weeks thereafter, the LD50 values were determined.

| Structure (SMILES) | Decrease in Blood Glucose ([1]; 15 minutes) [%] | Degree of increase of Blood Insulin ([1]; 15 minutes) | Decrease in Blood Glucose ([1]; 30 minutes) [%] | Degree of increase of Blood Insulin ([1]; 30 minutes) | Decrease in Blood Glucose ([1]; 60 minutes) [%] | Degree of increase of Blood Insulin ([1]; 60 minutes) | effect on decreasing the blood glucose value and increasing the blood insulin level (in words) [1] | decrease in the blood glucose value (in words) [2] | LD50 value (in words) [3] | Blood Glucose ([2]; insulin 50 unit/kg, absorption promoter 150 mg/kg, oral, 30 minutes, control 82.4 ± 8.1) [mg/dL] |
| --- | --- | --- | --- | --- | --- | --- | --- | --- | --- | --- |
| Cc1ccc(C(Cl)=CC(=O)N[C@@H](Cc2ccccc2)C(=O)O)cc1 [N-(β-chloro-4-methylcinnamoyl)-L-phenylalanine] | 42.1 | 10.5 | 21.6 | 2.0 | 12.1 | 2.1 | excellent effect on decreasing the blood glucose value and increasing the blood insulin level |  |  |  |
| Cc1ccc(C=C(F)C(=O)N[C@@H](Cc2ccccc2)C(=O)O)cc1 [N-(α-fluoro-4-methylcinnamoyl)-L-phenylalanine] |  |  |  |  |  |  |  | excellent effect in decreasing the blood glucose value | excellent LD50 value |  |
| Cc1ccc(C=C(F)C(=O)N[C@H](Cc2ccccc2)C(=O)O)cc1 [N-(α-fluoro-4-methylcinnamoyl)-D-phenylalanine] |  |  |  |  |  |  |  | excellent effect in decreasing the blood glucose value | excellent LD50 value |  |
| Cc1ccc(C=CC(=O)N[C@@H](Cc2ccccc2)C(=O)O)cc1 [N-(4-methylcinnamoyl)-L-phenylalanine] |  |  |  |  |  |  |  | small |  | 78.0 ± 7.8 |
| O=C(N[C@@H](Cc1ccccc1)C(=O)O)C(F)=Cc1ccccc1 [N-(α-fluorocinnamoyl)-L-phenylalanine] |  |  |  |  |  |  |  | small |  |  |
| Cc1ccc(C(Cl)=CC(=O)N[C@H](Cc2ccccc2)C(=O)O)cc1 [N-(β-chloro-4-methylcinnamoyl)-D-phenylalanine] | 35.7 | 2.1 | 47.8 | 3.3 | 42.8 | 1.0 | excellent effect on decreasing the blood glucose value and increasing the blood insulin level |  |  |  |
